Experiments:
growth hormone secretion [1] = experiment: Growth hormone secretion regulating function, intravenous administration of amino acid solutions; format: in vivo, shiba-goat (capra hircus); settings: aspartic acid 0.75 mmol/kg, valine 1.0 mmol/kg, blood 6 h before to 12 h after administration, n=3
Experimental: The growth hormone secretion regulating function of amino acids to be used in the present invention was evaluated by investigating changes in growth hormone secretion caused by intravenous administration of amino acid solutions. The details are as follows.
Special grade aspartic acid (Ajinomoto Co., Inc.) and valine (Ajinomoto Co., Inc.) were used as L-type amino acid samples. The amino acids were dissolved in purified water or an aqueous solution of 5% carboxymethylcellulose and administered as aqueous solutions (pH 7.0 to 8.0).
Two- to four-year-old mature castrated male and female shiba-goats (25 to 35 kg), purchased from the farm of Tokyo University, were domesticated for about one week. Aspartic acid (0.75 mmol/kg), valine (1.0 mmol/kg), and a mixture thereof, prepared in the same way as above, were administered intravenously via a cannula placed in the jugular vein, and blood was collected continuously during a period between 6 hours before and 12 hours after administration every 15 minutes via the cannula placed in the jugular vein, followed by investigation of changes in growth hormone secretion (n=3). The concentrations of the growth hormone in blood were measured by radioimmunoassay based on a double antibody method.
The growth hormone and antibody used in the radioimmunoassay were purchased from National institute of Diabetes and Digestive and Kidney Diseases. The other procedures were performed based on a reference (Hashizume T et al., Animal Science Technology 62: 343-350). The minimum measured concentration was 1 ng/ml, while the maximum measured concentration was 512 ng/ml. The intra-assay variation and inter-assay variation were 11.6% and 12.3%, respectively.

growth hormone secretion [2] = experiment: Growth hormone secretion regulating function, oral administration of amino acid solutions; format: in vivo, shiba-goat (capra hircus); settings: sodium aspartate monohydrate 5 mmol/kg, valine 5 mmol/kg, blood 6 h before to 12 h after administration, n=3
Experimental: Two- to four-year-old mature castrated male and female shiba-goats (25 to 35 kg), purchased from the farm of Tokyo University, were domesticated for about one week. Sodium aspartate monohydrate (5 mmol/kg, 861 mg/kg), valine (5 mmol/kg, 586 mg/kg), and a mixture thereof, prepared in the same way as Example 1, were administered orally to the shiba-goats, and blood was collected continuously during a period between 6 hours before and 12 hours after administration every 15 minutes via a cannula placed in the jugular vein, followed by investigation of changes in growth hormone secretion (n=3). The concentrations of the growth hormone in blood were measured by immunoassay in which europium was used.
The growth hormone and antibody used in the immunoassay were purchased from National institute of Diabetes and Digestive and Kidney Diseases. The other procedures were performed based on a reference (Sugino T et al., Biochemical and biophysical research communications 295: 255-60). The minimum measured concentration was 2 ng/ml, while the maximum measured concentration was 126 ng/ml. The intra-assay variation and inter-assay variation were 11.3% and 8.6%, respectively.

CC(C)[C@H](N)C(=O)O [valine]
no changes: amount of the growth hormone secreted in a pulse-like manner (growth hormone secretion [1]) | secretion patterns of the growth hormone secreted in a pulse-like manner at a certain frequency (growth hormone secretion [1]) | amount of the growth hormone secreted in a pulse-like manner (growth hormone secretion [2]) | secretion patterns of the growth hormone secreted in a pulse-like manner at a certain frequency (growth hormone secretion [2])

N[C@@H](CC(=O)O)C(=O)O [aspartic acid]
no changes: amount of the growth hormone secreted in a pulse-like manner (growth hormone secretion [1]) | secretion patterns of the growth hormone secreted in a pulse-like manner at a certain frequency (growth hormone secretion [1]) | amount of the growth hormone secreted in a pulse-like manner (growth hormone secretion [2]) | secretion patterns of the growth hormone secreted in a pulse-like manner at a certain frequency (growth hormone secretion [2])
